For 1 compound, inhibition results are on record in article PMC8474119, “Discovery and SAR Evolution of Pyrazole Azabicyclo[3.2.1]octane Sulfonamides as a Novel Class of Non-Covalent N-Acylethanolamine-Hydrolyzing Acid Amidase (NAAA) Inhibitors for Oral Administration” (Journal of Medicinal Chemistry, 2021).

The experiment addresses T1, human FAAH (Homo sapiens, UniProt O00519).
T1 construct: made in house; host or cells: HEK-293 cells stably overexpressing human FAAH-1; membrane-enriched lysate
T1 sequence (O00519 1-579): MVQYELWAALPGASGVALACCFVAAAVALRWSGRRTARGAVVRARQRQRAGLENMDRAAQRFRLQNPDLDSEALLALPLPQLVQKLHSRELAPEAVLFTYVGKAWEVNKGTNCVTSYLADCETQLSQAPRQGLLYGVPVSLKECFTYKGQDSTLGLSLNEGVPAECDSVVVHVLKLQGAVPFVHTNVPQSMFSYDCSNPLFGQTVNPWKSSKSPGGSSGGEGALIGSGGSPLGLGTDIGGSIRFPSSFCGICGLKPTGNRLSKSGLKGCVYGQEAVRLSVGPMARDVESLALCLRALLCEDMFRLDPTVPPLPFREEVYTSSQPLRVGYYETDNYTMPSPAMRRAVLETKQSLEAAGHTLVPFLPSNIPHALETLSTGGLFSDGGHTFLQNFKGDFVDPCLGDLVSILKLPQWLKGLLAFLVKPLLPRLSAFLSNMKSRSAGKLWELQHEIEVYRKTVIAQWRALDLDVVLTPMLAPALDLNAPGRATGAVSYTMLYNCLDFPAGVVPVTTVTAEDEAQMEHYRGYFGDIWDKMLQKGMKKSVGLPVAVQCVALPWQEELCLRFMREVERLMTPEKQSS
The experiment is described as follows: Fluorogenic human-FAAH-1 assay. In kind it is biochemical. As to the method:
Human recombinant proteins were obtained from HEK-293 stable overexpressing human NAAA, AC, and FAAH-1 cell lines, respectively. Cells were grown in Dulbecco’s modified Eagle medium (DMEM) containing 10% FBS, 1% glutamine, 1 mM sodium pyruvate, and 500 μg/mL geneticin (G418). To obtain a high-density cell proliferation, h-NAAA-HEK-293 cells were grown in BelloCell-500 bottle, a compact bioreactor. On the contrary, h-AC and h-FAAH-1-HEK-293 cells were grown in 150 mm dishes and scraped off with cold PBS 1× pH 7.4 at 80% confluence. Cell pellets were collected and stored at −80 °C until protein preparation.
Cell pellets, obtained by centrifugation at 300g for 7 min at 4 °C, were resuspended in 20 mM Tris-HCl pH 7.4, 0.32 M sucrose, disrupted by sonication (10 pulses, 5 times), and centrifuged (1000g, 10 min, 4 °C). […] Membrane pellets were resuspended in PBS to obtain h-FAAH-1 preparation; the protein concentration was measured by the Bradford Protein Assay (BioRad) and samples were aliquoted and stored at −80 °C until use.
The fluorescence assay to measure FAAH activity was performed in 96-well black plates (Black OptiPlate-96 F; PerkinElmer, Massachusetts, USA): 2.5 μg of human FAAH-1 membrane preparation was preincubated for 50 min at 37 °C, in 190 μL of assay buffer (50 mM Tris-HCl pH 7.4, 0.05% Fatty acid-free BSA) with 5 μL of inhibitor or 5 μL DMSO to measure FAAH total activity. […]

The compound `CCOCc1cnc(O[C@H]2C[C@H]3CC[C@@H](C2)N3S(=O)(=O)c2c(C)n[nH]c2C)cn1` [Compound 50, (1R,3r,5S)-8-((3,5-Dimethyl-1H-pyrazol-4-yl)sulfonyl)-3-((5-(ethoxymethyl)pyrazin-2-yl)oxy)-8-azabicyclo[3.2.1]octane] showed an inhibition at 30 µM of 25%.
